Here are results for 3 compounds from ChEMBL document CHEMBL1154023, “Carbonic anhydrase inhibitors. Inhibition of the beta-class enzyme from the pathogenic yeast Candida glabrata with anions” (Bioorg Med Chem Lett, 2009).

The Ki is a dissociation constant, usually derived from enzyme kinetics or from competition with a known ligand. Higher therefore signals weaker binding.

In this assay the target is T1, Carbonic anhydrase (Candida glabrata CBS 138, UniProt Q6FTL6).
T1 sequence (Q6FTL6 whole entry): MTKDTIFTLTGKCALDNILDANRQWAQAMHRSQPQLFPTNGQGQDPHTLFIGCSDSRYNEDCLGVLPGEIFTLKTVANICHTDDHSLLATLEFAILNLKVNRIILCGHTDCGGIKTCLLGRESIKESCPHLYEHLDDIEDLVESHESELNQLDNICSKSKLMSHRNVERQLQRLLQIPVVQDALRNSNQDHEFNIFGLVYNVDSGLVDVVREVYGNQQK
The experiment in a line: Inhibition of Candida glabrata carbonic anhydrase by stopped flow CO2 hydration assay. Also on record: species or system Nakaseomyces glabratus.

With `OB(O)c1ccccc1` [PHENYLBORONIC ACID], affinity was put at a Ki of 100 µM.

`NS(=O)(=O)O` [SODIUM SULFAMATE]: the Ki was 110 µM. In the case of `NS(N)(=O)=O` [SULFAMIDE], the Ki was determined as 420 µM.
